Data: the NIST ThermoML archive (doi:10.1016/j.fluid.2017.03.021)
Numbers after ± are expanded uncertainties.

Assays:
[1] = 101.33 kPa, Liquid; for speed of sound: Sing-around technique in a fixed-path interferometer; for mass density: Vibrating tube method
[2] = molar heat capacity at constant pressure; conditions: 101.33 kPa, Liquid, DSC

Molecule `CCCC[n+]1ccn(C2CCCC2)c1.O=S(=O)([N-]S(=O)(=O)C(F)(F)F)C(F)(F)F` has a speed of sound ([1]; 287.15 K) of 1298.1 ± 5 m/s, a mass density ([1]; 287.15 K) of 1384.9 ± 10 kg/m3 and a speed of sound ([1]; 289.15 K) of 1293.1 ± 5 m/s. The mass density ([1]; 289.15 K) was 1383.1 ± 10 kg/m3, the speed of sound ([1]; 291.15 K) was 1288.1 ± 5 m/s and the mass density ([1]; 291.15 K) was 1381.2 ± 10 kg/m3. For the same molecule, the speed of sound ([1]; 293.15 K) was 1283.2 ± 5 m/s, the mass density ([1]; 293.15 K) was 1379.4 ± 10 kg/m3 and the speed of sound ([1]; 295.15 K) was 1278.3 ± 5 m/s. For the same molecule, the mass density ([1]; 295.15 K) was 1377.5 ± 10 kg/m3, the speed of sound ([1]; 297.15 K) was 1273.4 ± 5 m/s and the mass density ([1]; 297.15 K) was 1375.7 ± 10 kg/m3. It also gave a speed of sound ([1]; 299.15 K) of 1268.6 ± 5 m/s, a mass density ([1]; 299.15 K) of 1373.8 ± 10 kg/m3 and a speed of sound ([1]; 301.15 K) of 1263.8 ± 5 m/s. It also gave a mass density ([1]; 301.15 K) of 1372 ± 10 kg/m3, a speed of sound ([1]; 303.15 K) of 1259 ± 5 m/s and a mass density ([1]; 303.15 K) of 1370.2 ± 10 kg/m3. It also gave a speed of sound ([1]; 305.15 K) of 1254.2 ± 5 m/s, a mass density ([1]; 305.15 K) of 1368.4 ± 10 kg/m3 and a speed of sound ([1]; 307.15 K) of 1249.4 ± 5 m/s. It also gave a mass density ([1]; 307.15 K) of 1366.5 ± 10 kg/m3, a speed of sound ([1]; 309.15 K) of 1244.7 ± 5 m/s and a mass density ([1]; 309.15 K) of 1364.7 ± 10 kg/m3. The speed of sound ([1]; 311.15 K) was 1240 ± 5 m/s, the mass density ([1]; 311.15 K) was 1362.9 ± 10 kg/m3 and the speed of sound ([1]; 313.15 K) was 1235.3 ± 5 m/s. The mass density ([1]; 313.15 K) was 1361.1 ± 10 kg/m3, the speed of sound ([1]; 315.15 K) was 1230.6 ± 5 m/s and the mass density ([1]; 315.15 K) was 1359.3 ± 10 kg/m3. The speed of sound ([1]; 317.15 K) was 1226 ± 5 m/s, the mass density ([1]; 317.15 K) was 1357.5 ± 10 kg/m3 and the speed of sound ([1]; 319.15 K) was 1221.4 ± 5 m/s. It also gave a mass density ([1]; 319.15 K) of 1355.7 ± 10 kg/m3, a speed of sound ([1]; 321.15 K) of 1216.7 ± 5 m/s and a mass density ([1]; 321.15 K) of 1353.9 ± 10 kg/m3. For the same molecule, the speed of sound ([1]; 323.15 K) was 1212.1 ± 5 m/s, the mass density ([1]; 323.15 K) was 1352.1 ± 10 kg/m3 and the speed of sound ([1]; 325.15 K) was 1207.6 ± 5 m/s. It also gave a mass density ([1]; 325.15 K) of 1350.3 ± 10 kg/m3, a speed of sound ([1]; 327.15 K) of 1203 ± 5 m/s and a mass density ([1]; 327.15 K) of 1348.5 ± 9.9 kg/m3. The speed of sound ([1]; 329.15 K) was 1198.5 ± 5 m/s, the mass density ([1]; 329.15 K) was 1346.7 ± 9.9 kg/m3 and the speed of sound ([1]; 331.15 K) was 1193.9 ± 5 m/s. The mass density ([1]; 331.15 K) was 1344.9 ± 9.9 kg/m3, the speed of sound ([1]; 333.15 K) was 1189.4 ± 5 m/s and the mass density ([1]; 333.15 K) was 1343.1 ± 9.8 kg/m3. It also gave a speed of sound ([1]; 335.15 K) of 1185 ± 5 m/s, a mass density ([1]; 335.15 K) of 1341.3 ± 9.8 kg/m3 and a speed of sound ([1]; 337.15 K) of 1180.5 ± 5 m/s. The mass density ([1]; 337.15 K) was 1339.6 ± 9.8 kg/m3, the speed of sound ([1]; 339.15 K) was 1176.1 ± 5 m/s and the mass density ([1]; 339.15 K) was 1337.8 ± 9.8 kg/m3. It also gave a speed of sound ([1]; 341.15 K) of 1171.7 ± 5 m/s, a mass density ([1]; 341.15 K) of 1336 ± 9.7 kg/m3 and a speed of sound ([1]; 343.15 K) of 1167.3 ± 5 m/s. For the same molecule, the mass density ([1]; 343.15 K) was 1334.3 ± 9.7 kg/m3, the “molar heat capacity at constant pressure” value ([2]; 293.15 K) was 648.54 ± 25 J/K/mol and the “molar heat capacity at constant pressure” value ([2]; 294.15 K) was 649.39 ± 25 J/K/mol. The “molar heat capacity at constant pressure” value ([2]; 295.15 K) was 650.01 ± 25 J/K/mol, the “molar heat capacity at constant pressure” value ([2]; 296.15 K) was 650.62 ± 25 J/K/mol and the “molar heat capacity at constant pressure” value ([2]; 297.15 K) was 651.28 ± 25 J/K/mol. For the same molecule, the “molar heat capacity at constant pressure” value ([2]; 298.15 K) was 651.99 ± 25 J/K/mol, the “molar heat capacity at constant pressure” value ([2]; 299.15 K) was 652.8 ± 25 J/K/mol and the “molar heat capacity at constant pressure” value ([2]; 300.15 K) was 653.46 ± 25 J/K/mol. The “molar heat capacity at constant pressure” value ([2]; 301.15 K) was 654.08 ± 25 J/K/mol, the “molar heat capacity at constant pressure” value ([2]; 302.15 K) was 654.84 ± 25 J/K/mol and the “molar heat capacity at constant pressure” value ([2]; 303.15 K) was 655.4 ± 25 J/K/mol. For the same molecule, the “molar heat capacity at constant pressure” value ([2]; 304.15 K) was 656.21 ± 25 J/K/mol, the “molar heat capacity at constant pressure” value ([2]; 305.15 K) was 657.01 ± 25 J/K/mol and the “molar heat capacity at constant pressure” value ([2]; 306.15 K) was 657.63 ± 25 J/K/mol. For the same molecule, the “molar heat capacity at constant pressure” value ([2]; 307.15 K) was 658.43 ± 26 J/K/mol, the “molar heat capacity at constant pressure” value ([2]; 308.15 K) was 659.14 ± 26 J/K/mol and the “molar heat capacity at constant pressure” value ([2]; 309.15 K) was 659.9 ± 26 J/K/mol. The “molar heat capacity at constant pressure” value ([2]; 310.15 K) was 660.66 ± 26 J/K/mol, the “molar heat capacity at constant pressure” value ([2]; 311.15 K) was 661.42 ± 26 J/K/mol and the “molar heat capacity at constant pressure” value ([2]; 312.15 K) was 662.22 ± 26 J/K/mol. For the same molecule, the “molar heat capacity at constant pressure” value ([2]; 313.15 K) was 663.07 ± 26 J/K/mol, the “molar heat capacity at constant pressure” value ([2]; 314.15 K) was 663.88 ± 26 J/K/mol and the “molar heat capacity at constant pressure” value ([2]; 315.15 K) was 664.73 ± 26 J/K/mol. For the same molecule, the “molar heat capacity at constant pressure” value ([2]; 316.15 K) was 665.35 ± 26 J/K/mol, the “molar heat capacity at constant pressure” value ([2]; 317.15 K) was 666.15 ± 26 J/K/mol and the “molar heat capacity at constant pressure” value ([2]; 318.15 K) was 666.77 ± 26 J/K/mol. For the same molecule, the “molar heat capacity at constant pressure” value ([2]; 319.15 K) was 667.43 ± 26 J/K/mol, the “molar heat capacity at constant pressure” value ([2]; 320.15 K) was 668.19 ± 26 J/K/mol and the “molar heat capacity at constant pressure” value ([2]; 321.15 K) was 668.94 ± 26 J/K/mol. The “molar heat capacity at constant pressure” value ([2]; 322.15 K) was 669.75 ± 26 J/K/mol, the “molar heat capacity at constant pressure” value ([2]; 323.15 K) was 670.51 ± 26 J/K/mol and the “molar heat capacity at constant pressure” value ([2]; 324.15 K) was 671.26 ± 26 J/K/mol. For the same molecule, the “molar heat capacity at constant pressure” value ([2]; 325.15 K) was 672.02 ± 26 J/K/mol, the “molar heat capacity at constant pressure” value ([2]; 326.15 K) was 672.78 ± 26 J/K/mol and the “molar heat capacity at constant pressure” value ([2]; 327.15 K) was 673.49 ± 26 J/K/mol. The “molar heat capacity at constant pressure” value ([2]; 328.15 K) was 674.44 ± 26 J/K/mol, the “molar heat capacity at constant pressure” value ([2]; 329.15 K) was 675.15 ± 26 J/K/mol and the “molar heat capacity at constant pressure” value ([2]; 330.15 K) was 675.95 ± 26 J/K/mol. The “molar heat capacity at constant pressure” value ([2]; 331.15 K) was 676.8 ± 26 J/K/mol, the “molar heat capacity at constant pressure” value ([2]; 332.15 K) was 677.56 ± 26 J/K/mol and the “molar heat capacity at constant pressure” value ([2]; 333.15 K) was 678.41 ± 26 J/K/mol. The “molar heat capacity at constant pressure” value ([2]; 334.15 K) was 679.22 ± 26 J/K/mol, the “molar heat capacity at constant pressure” value ([2]; 335.15 K) was 680.21 ± 26 J/K/mol and the “molar heat capacity at constant pressure” value ([2]; 336.15 K) was 680.88 ± 26 J/K/mol. For the same molecule, the “molar heat capacity at constant pressure” value ([2]; 337.15 K) was 681.63 ± 26 J/K/mol, the “molar heat capacity at constant pressure” value ([2]; 338.15 K) was 682.34 ± 26 J/K/mol and the “molar heat capacity at constant pressure” value ([2]; 339.15 K) was 683.01 ± 26 J/K/mol. For the same molecule, the “molar heat capacity at constant pressure” value ([2]; 340.15 K) was 683.91 ± 26 J/K/mol, the “molar heat capacity at constant pressure” value ([2]; 341.15 K) was 684.76 ± 27 J/K/mol and the “molar heat capacity at constant pressure” value ([2]; 342.15 K) was 685.47 ± 27 J/K/mol. The “molar heat capacity at constant pressure” value ([2]; 343.15 K) was 686.27 ± 27 J/K/mol, the “molar heat capacity at constant pressure” value ([2]; 344.15 K) was 686.94 ± 27 J/K/mol and the “molar heat capacity at constant pressure” value ([2]; 345.15 K) was 687.65 ± 27 J/K/mol. For the same molecule, the “molar heat capacity at constant pressure” value ([2]; 346.15 K) was 688.45 ± 27 J/K/mol, the “molar heat capacity at constant pressure” value ([2]; 347.15 K) was 689.07 ± 27 J/K/mol and the “molar heat capacity at constant pressure” value ([2]; 348.15 K) was 690.11 ± 27 J/K/mol.
